In brackets after ≈: the same amount, converted by molar mass. Where two headings read alike, the source gives them in different places.
Assays:
[1] = system: Escherichia coli M-17; assay: Sensitivity of strains: suppression of growth; assay type: cell-based; conditions: Compound (1) 1.0%; antibiotics disc method
[2] = system: Neisseria meningitidis M-A72; assay: Sensitivity of strains: suppression of growth; assay type: cell-based; conditions: Compound (1) 1.0%; antibiotics disc method
[3] = system: Klebsiella pneumoniae M-A21; assay: Sensitivity of strains: suppression of growth; assay type: cell-based; conditions: Compound (1) 1.0%; antibiotics disc method
[4] = system: Enterobacter aerogenes B-687; assay: Sensitivity of strains: suppression of growth; assay type: cell-based; conditions: Compound (1) 1.0%; antibiotics disc method
[5] = system: Escherichia coli B-65; assay: Sensitivity of strains: suppression of growth; assay type: cell-based; conditions: Compound (1) 1.0%; antibiotics disc method
[6] = system: Pseudomonas aeruginosa B-601; assay: Sensitivity of strains: suppression of growth; assay type: cell-based; conditions: Compound (1) 1.0%; antibiotics disc method
[7] = system: Staphylococcus aureus M-209; assay: Sensitivity of strains: suppression of growth; assay type: cell-based; conditions: Compound (1) 1.0%; antibiotics disc method
[8] = system: Corynebacterium diphtheriae B-670; assay: Sensitivity of strains: suppression of growth; assay type: cell-based; conditions: Compound (1) 1.0%; antibiotics disc method
[9] = system: Shigella sonnei B-720; assay: Sensitivity of strains: suppression of growth; assay type: cell-based; conditions: Compound (1) 1.0%; antibiotics disc method
[10] = system: Staphylococci epidermidis D-513; assay: Sensitivity of strains: suppression of growth; assay type: cell-based; conditions: Compound (1) 1.0%; antibiotics disc method
[11] = system: Enterobacter aerogenes B-679; assay: Sensitivity of strains: suppression of growth; assay type: cell-based; conditions: Compound (1) 1.0%; antibiotics disc method
[12] = system: β-hemolytic streptococcus B-624; assay: Sensitivity of strains: suppression of growth; assay type: cell-based; conditions: Compound (1) 1.0%; antibiotics disc method
[13] = system: Klebsiella pneumoniae M-248; assay: Sensitivity of strains: suppression of growth; assay type: cell-based; conditions: Compound (1) 1.0%; antibiotics disc method
[14] = system: Staphylococcus epidermidis BK-30; assay: Sensitivity of strains: suppression of growth; assay type: cell-based; conditions: Compound (1) 1.0%; antibiotics disc method
[15] = system: Salmonella typhimurium M-727; assay: Sensitivity of strains: suppression of growth; assay type: cell-based; conditions: Compound (1) 1.0%; antibiotics disc method
[16] = system: Staphylococcus aureus B-674; assay: Sensitivity of strains: suppression of growth; assay type: cell-based; conditions: Compound (1) 1.0%; antibiotics disc method
[17] = system: Staphylococcus aureus B-685; assay: Sensitivity of strains: suppression of growth; assay type: cell-based; conditions: Compound (1) 1.0%; antibiotics disc method
[18] = system: Bacillus sp. B-575; assay: Sensitivity of strains: suppression of growth; assay type: cell-based; conditions: Compound (1) 1.0%; antibiotics disc method; further: key: + sensitive strains; + moderately sensitive strains; − stable strains
[19] = system: Alkaligenes sp. B-689; assay: Sensitivity of strains: suppression of growth; assay type: cell-based; conditions: Compound (1) 1.0%; antibiotics disc method
[20] = system: Staphylococcus aureus M-12159; assay: Sensitivity of strains: suppression of growth; assay type: cell-based; conditions: Compound (1) 1.0%; antibiotics disc method
[21] = system: Neisseria meningitidis M-6231; assay: Sensitivity of strains: suppression of growth; assay type: cell-based; conditions: Compound (1) 1.0%; antibiotics disc method
[22] = system: Acinetobacter B-681; assay: Sensitivity of strains: suppression of growth; assay type: cell-based; conditions: Compound (1) 1.0%; antibiotics disc method
[23] = system: γ-hemolytic streptococcus B-672; assay: Sensitivity of strains: suppression of growth; assay type: cell-based; conditions: Compound (1) 1.0%; antibiotics disc method
[24] = system: Salmonella paratyphi M-16469; assay: Sensitivity of strains: suppression of growth; assay type: cell-based; conditions: Compound (1) 1.0%; antibiotics disc method
[25] = system: Acinetobacter B-676; assay: Sensitivity of strains: suppression of growth; assay type: cell-based; conditions: Compound (1) 1.0%; antibiotics disc method
[26] = system: Shigella flexneri M-2A6907; assay: Sensitivity of strains: suppression of growth; assay type: cell-based; conditions: Compound (1) 1.0%; antibiotics disc method
[27] = system: Alkaligenes sp. B-667; assay: Sensitivity of strains: suppression of growth; assay type: cell-based; conditions: Compound (1) 1.0%; antibiotics disc method
[28] = system: Conditional pathogenic enterobacteria gram-negative aerobic bacilli; assay type: cell-based; further: key: + sensitive strains; + moderately sensitive strains; − stable strains
[29] = system: Citrobacter diversus B-678; assay: Sensitivity of strains: suppression of growth; assay type: cell-based; conditions: Compound (1) 1.0%; antibiotics disc method
[30] = system: Acinetobacter B-677; assay: Sensitivity of strains: suppression of growth; assay type: cell-based; conditions: Compound (1) 1.0%; antibiotics disc method
[31] = system: Yersinia pseudotuberculosis; assay type: cell-based; conditions: Compound (1) 1.0%; antibiotics disc method
[32] = system: Escherichia coli B-683; assay: Sensitivity of strains: suppression of growth; assay type: cell-based; conditions: Compound (1) 1.0%; antibiotics disc method
[33] = system: Mycobact tub. H.37RV; assay: Anti-TB effect, serial double dilution in liquid medium; assay type: cell-based, M tuberculosis; conditions: 10-14 days incubation at 37° C.; read-out: Minimal Inhibitory Concentration
[34] = system: Escherichia coli ATCC 25922; assay: NCCLS broth microdilution MIC/MBC; assay type: cell-based; conditions: for MIC: Escherichia coli, ATCC25922
[35] = system: Pseudomonas aeruginosa ATCC 27853; assay: NCCLS broth microdilution MIC/MBC; assay type: cell-based; conditions: for MIC: Pseudomonas aeruginosa, ATCC27853
[36] = system: Serratia marcescens RMIT; assay: NCCLS broth microdilution MIC/MBC; assay type: cell-based; conditions: for MIC: Serratia marcescens
[37] = system: Proteus vulgaris RMIT; assay: NCCLS broth microdilution MIC/MBC; assay type: cell-based; conditions: for MIC: Proteus vulgaris
[38] = system: Staphylococcus aureus ATCC 29213; assay: NCCLS broth microdilution MIC/MBC; assay type: cell-based; conditions: for MIC: Staphylococcus aureus, ATCC29213
[39] = in vivo; cited from earlier work
[40] = Table 9, 35° C., 24 hours, read-out: MIC
[41] = Table 17, 2 or 3 replicates, read-out: MIC

| Structure (SMILES) | Suppression of Growth (+/−) [2] | Suppression of Growth (+/−) [3] | Suppression of Growth (+/−) [4] | Suppression of Growth (+/−) [7] | Suppression of Growth (+/−) [8] | Suppression of Growth (+/−) [10] | Suppression of Growth (+/−) [11] | Suppression of Growth (+/−) [12] | Suppression of Growth (+/−) [13] | Suppression of Growth (+/−) [14] | Suppression of Growth (+/−) [17] | Suppression of Growth (+/−) [20] | Suppression of Growth (+/−) [21] | Suppression of Growth (+/−) [22] | Suppression of Growth (+/−) [23] | Suppression of Growth (+/−) [25] | Suppression of Growth (+/−) [27] | Suppression of Growth (+/−) [28] | Suppression of Growth (+/−) [30] | MIC [33] [µg/mL] | other results |
| --- | --- | --- | --- | --- | --- | --- | --- | --- | --- | --- | --- | --- | --- | --- | --- | --- | --- | --- | --- | --- | --- |
| CCC[C@@H]1C[C@@H](C(=O)N[C@@H]([C@H]2O[C@H](SC)[C@H](O)[C@@H](O)[C@H]2O)[C@@H](C)O)N(C)C1 [Antibiotic 6, lincomycin] | − | − | − | − | − | + | − | − | − | − | − | − | − | − | − | − | − | − | − |  | Suppression of Growth (+/−) [1]: −; Suppression of Growth (+/−) [5]: +; Suppression of Growth (+/−) [6]: −; Suppression of Growth (+/−) [9]: −; Suppression of Growth (+/−) [15]: −; Suppression of Growth (+/−) [16]: −; Suppression of Growth (+/−) [18]: +; Suppression of Growth (+/−) [19]: −; Suppression of Growth (+/−) [24]: −; Suppression of Growth (+/−) [26]: −; Suppression of Growth (+/−) [29]: −; Suppression of Growth (+/−) [31]: −; Suppression of Growth (+/−) [32]: − |
| CO[C@H]1/C=C/O[C@@]2(C)Oc3c(C)c(O)c4c(O)c(c(/C=N/N5CCN(C)CC5)c(O)c4c3C2=O)NC(=O)/C(C)=C\C=C\[C@H](C)[C@H](O)[C@@H](C)[C@@H](O)[C@@H](C)[C@H](OC(C)=O)[C@@H]1C [Antibiotic 10, rifampicin] | − | − | − | + | + | + | − | + | − | + | + | + | − | + | − | + | + | − | + | 0.01 to 0.02 (≈ 0.0122 to 0.0243 µM) | Suppression of Growth (+/−) [1]: −; Suppression of Growth (+/−) [5]: −; Suppression of Growth (+/−) [6]: −; Suppression of Growth (+/−) [16]: −; Suppression of Growth (+/−) [19]: −; Suppression of Growth (+/−) [24]: −; Suppression of Growth (+/−) [29]: −; Suppression of Growth (+/−) [31]: −; Suppression of Growth (+/−) [32]: − |
| [H]/N=C(/N)N[C@H]1[C@H](O)[C@@H](O)[C@H](O[C@@H]2O[C@@H](C)[C@](O)(C=O)[C@H]2O[C@@H]2O[C@@H](CO)[C@H](O)[C@@H](O)[C@@H]2NC)[C@@H](N/C(N)=N\[H])[C@@H]1O [Antibiotic 12, streptomycin] | − | − | − | + | − | − | − | − | − | − | + | + | − | − | − | − | − | − | − | 0.5 (≈ 0.86 µM) | Suppression of Growth (+/−) [31]: − |
| CCCCCCCCCCCCCCCC[N+](C)(C)C.[Br-] [CTAB, cetyl trimethyl ammonium bromide] |  |  |  |  |  |  |  |  |  |  |  |  |  |  |  |  |  |  |  |  | MIC [34]: 16 µg/mL; MMC ([34]; Table 17, 2 or 3 replicates): 16 µg/mL; MIC [35]: 512 µg/mL; MMC ([35]; Table 17, 2 or 3 replicates): >512 µg/mL; MIC [36]: 128 µg/mL; MMC ([36]; Table 17, 2 or 3 replicates): 128 µg/mL; MIC [37]: 128 µg/mL; MMC ([37]; Table 17, 2 or 3 replicates): 256 µg/mL; MIC [38]: 16 µg/mL; MMC ([38]; Table 17, 2 or 3 replicates): 32 µg/mL |
| [H]/N=C(\N/C(=N/[H])NCCCCCCNC(=N)NC(=N)Nc1ccc(Cl)cc1)Nc1ccc(Cl)cc1 [Chlorhexidine] |  |  |  |  |  |  |  |  |  |  |  |  |  |  |  |  |  |  |  |  | MIC [34, 40]: 2 µg/mL (≈ 3.96 µM); MIC [34, 41]: 2 µg/mL (≈ 3.96 µM); MMC ([34]; Table 9, 35° C., 24 hours): 4 µg/mL; MMC ([34]; Table 17, 2 or 3 replicates): 4 µg/mL; MIC [35, 40]: 32 µg/mL (≈ 63.3 µM); MIC [35, 41]: 32 µg/mL (≈ 63.3 µM); MMC ([35]; Table 9, 35° C., 24 hours): 64 µg/mL; MMC ([35]; Table 17, 2 or 3 replicates): 64 µg/mL; MIC [36, 40]: 16 µg/mL (≈ 31.7 µM); MIC [36, 41]: 16 µg/mL (≈ 31.7 µM); MMC ([36]; Table 9, 35° C., 24 hours): 32 µg/mL; MMC ([36]; Table 17, 2 or 3 replicates): 32 µg/mL; MIC [37, 40]: 6 µg/mL (≈ 11.9 µM); MIC [37, 41]: 6 µg/mL (≈ 11.9 µM); MMC ([37]; Table 9, 35° C., 24 hours): 128 µg/mL; MMC ([37]; Table 17, 2 or 3 replicates): 128 µg/mL; MIC [38, 40]: 2 µg/mL (≈ 3.96 µM); MIC [38, 41]: 2 µg/mL (≈ 3.96 µM); MMC ([38]; Table 9, 35° C., 24 hours): 8 µg/mL; MMC ([38]; Table 17, 2 or 3 replicates): 8 µg/mL |
| CC[C@@H](CO)NCCN[C@@H](CC)CO [Ethambutol] |  |  |  |  |  |  |  |  |  |  |  |  |  |  |  |  |  |  |  | 1 to 2.5 (≈ 4.89 to 12.2 µM) |  |
| NNC(=O)c1ccncc1 [Isoniazid] |  |  |  |  |  |  |  |  |  |  |  |  |  |  |  |  |  |  |  | 0.02 to 0.1 (≈ 0.146 to 0.729 µM) |  |
| NCCSSCCN [cystamine] |  |  |  |  |  |  |  |  |  |  |  |  |  |  |  |  |  |  |  |  | index of protection [39]: ≤ 1.45; side effect [39]: causes diarrhea |
| NCCS [mercamine, β-mercaptoethylamine] |  |  |  |  |  |  |  |  |  |  |  |  |  |  |  |  |  |  |  |  | duration of radiation protecting activity [39]: 15 to 30 min; period of action [39]: 0.5 to 1 h |
